Legend:
Settings in all cases: 72 h
U2OS [1] = experiment: cell viability relative to DMSO; higher = less toxic
Caco-2 [2] = experiment: as above
HepG2 [3] = experiment: as above
Vero E6 [4] = experiment: as above
Calu-3 [5] = experiment: as above
U2OS [6] = experiment: relative viability EC50 (midpoint between 100% and the lowest measured viability); higher = less toxic
Caco-2 [7] = experiment: as above
HepG2 [8] = experiment: as above
Vero E6 [9] = experiment: as above
Calu-3 [10] = experiment: as above
U2OS [11] = experiment: drug sensitivity score (DSS) for viability; higher = more toxic; extreme values may be limits of the assay
Caco-2 [12] = experiment: as above
HepG2 [13] = experiment: as above
Vero E6 [14] = experiment: as above
Calu-3 [15] = experiment: as above

Compound | cell viability (U2OS [1]; 1 nM) [%] | cell viability (U2OS [1]; 10 nM) [%] | cell viability (U2OS [1]; 100 nM) [%] | cell viability (U2OS [1]; 1000 nM) [%] | cell viability (U2OS [1]; 10000 nM) [%] | cell viability (Caco-2 [2]; 1 nM) [%] | cell viability (Caco-2 [2]; 10 nM) [%] | cell viability (Caco-2 [2]; 100 nM) [%] | cell viability (Caco-2 [2]; 1000 nM) [%] | cell viability (Caco-2 [2]; 10000 nM) [%] | cell viability (HepG2 [3]; 1 nM) [%] | cell viability (HepG2 [3]; 10 nM) [%] | cell viability (HepG2 [3]; 100 nM) [%] | cell viability (HepG2 [3]; 1000 nM) [%] | cell viability (HepG2 [3]; 10000 nM) [%] | cell viability (Vero E6 [4]; 1 nM) [%] | cell viability (Vero E6 [4]; 10 nM) [%] | cell viability (Vero E6 [4]; 100 nM) [%] | cell viability (Vero E6 [4]; 1000 nM) [%] | cell viability (Vero E6 [4]; 10000 nM) [%] | cell viability (Calu-3 [5]; 1 nM) [%] | cell viability (Calu-3 [5]; 10 nM) [%] | cell viability (Calu-3 [5]; 100 nM) [%] | cell viability (Calu-3 [5]; 1000 nM) [%] | cell viability (Calu-3 [5]; 10000 nM) [%] | relative viability EC50 (U2OS [6]) [µM] | relative viability EC50 (Caco-2 [7]) [µM] | relative viability EC50 (HepG2 [8]) [µM] | relative viability EC50 (Vero E6 [9]) [µM] | relative viability EC50 (Calu-3 [10]) [µM] | drug sensitivity score (U2OS [11]) | drug sensitivity score (Caco-2 [12]) | drug sensitivity score (HepG2 [13]) | drug sensitivity score (Vero E6 [14]) | drug sensitivity score (Calu-3 [15])
CCOC(=O)Nc1ccc(NCc2ccc(F)cc2)cc1N [Retigabine] | 102 | 97.4 | 104 | 97 | 98 | 100 | 102 | 104 | 96.8 | 106 | 97.6 | 106 | 100 | 102 | 105 | 89.5 | 99.1 | 96.1 | 93.5 | 111 | 91.8 | 88.5 | 98.4 | 103 | 98.3 | > 10 | > 10 | > 10 | > 10 | > 10 | 0 | 0 | 0 | 0 | 0
CN(C)C(=O)Nc1cccc(-c2ccc(N(C)C)cc2)c1 [atglistatin] | 96.4 | 99.3 | 97.8 | 98.5 | 96.5 | 84.3 | 100 | 92.2 | 88.7 | 104 | 98.2 | 97.9 | 99.4 | 108 | 113 | 99 | 99.7 | 98.3 | 97.6 | 107 | 111 | 99.2 | 90.1 | 96.6 | 103 | > 10 | > 10 | > 10 | > 10 | > 10 | 0 | 0 | 0 | 0 | 0
CCN(CC)C(=O)Nc1ccc(OCC(O)CNC(C)(C)C)c(C(C)=O)c1 (stereo not given) [celiprolol] | 101 | 100 | 96.5 | 95.9 | 95.3 | 95.4 | 106 | 112 | 103 | 106 | 99.6 | 98.9 | 106 | 88.1 | 103 | 103 | 104 | 102 | 106 | 97.3 | 104 | 104 | 106 | 98.7 | 96.4 | > 10 | > 10 | > 10 | > 10 | > 10 | 0 | 0 | 0 | 0 | 0
OC[C@@H](O)[C@@H](O)[C@@H](O)CO [ribitol] | 98.9 | 96.2 | 97.4 | 93 | 102 | 100 | 97 | 104 | 102 | 103 | 101 | 90.9 | 111 | 100 | 105 | 93.7 | 100 | 97.8 | 99.2 | 101 | 102 | 93 | 98.1 | 96.6 | 98 | > 10 | > 10 | > 10 | > 10 | > 10 | 0 | 0 | 0 | 0 | 0
CC1(C)OC[C@H](NC(=O)Nc2ccc(Br)cc2Br)[C@H](c2ccccc2)O1 | 93.3 | 98 | 96.6 | 98.5 | 89.6 | 94.5 | 98.8 | 95.3 | 103 | 85.8 | 95.4 | 89.8 | 93.6 | 91.1 | 95.5 | 102 | 101 | 101 | 93.9 | 95.7 | 99.1 | 89.6 | 111 | 103 | 92.8 | > 10 | > 10 | > 10 | > 10 | > 10 | 0 | 0.1 | 0 | 0 | 0
N[C@H]1C(O)O[C@H](CO)[C@@H](O)[C@@H]1O (mixture of isomers) [glucosamine] | 97.6 | 99.9 | 94.2 | 96.4 | 95.7 | 88.8 | 91.8 | 95 | 96.6 | 100 | 112 | 106 | 109 | 100 | 112 | 108 | 103 | 101 | 97.7 | 105 | 101 | 107 | 97.2 | 101 | 105 | > 10 | > 10 | > 10 | > 10 | > 10 | 0 | 0 | 0 | 0 | 0
CC1=NN(c2ccc(C(=O)O)cc2)C(=O)C1=Cc1ccc(-c2cc(C)c(C)cc2[N+](=O)[O-])o1 [C646] | 102 | 95.6 | 98.8 | 94.9 | 92.9 | 87.3 | 90.5 | 101 | 94 | 98.1 | 90 | 102 | 92.5 | 93.7 | 90.5 | 97.3 | 102 | 100 | 100 | 99 | 106 | 98.1 | 89.3 | 89.6 | 98.9 | > 10 | > 10 | > 10 | > 10 | > 10 | 0 | 0 | 0 | 0 | 0.4
Oc1ccc(Cl)c2c1CCC2 [chlorindanol] | 101 | 98.8 | 97.1 | 107 | 98.9 | 115 | 93.9 | 84.6 | 105 | 99.5 | 110 | 89.5 | 97.9 | 95.2 | 84.1 | 99.5 | 100 | 103 | 96.4 | 103 | 99.8 | 118 | 107 | 109 | 96.9 | > 10 | > 10 | > 10 | > 10 | > 10 | 0 | 0 | 0.3 | 0 | 0
CN(C)c1nc(N(C)C)nc(N(C)C)n1 [altretamine] | 100 | 104 | 96.5 | 103 | 97.2 | 97.8 | 100 | 99.8 | 106 | 89.9 | 97.3 | 96.7 | 94.9 | 96 | 93.9 | 104 | 98.3 | 95.5 | 93 | 101 | 92.7 | 95.6 | 111 | 99.3 | 102 | > 10 | > 10 | > 10 | > 10 | > 10 | 0 | 0 | 0 | 0 | 0
NC1CCN(c2c(F)cc3c(=O)c(C(=O)O)cn(C4CC4)c3c2Cl)C1 (stereo not given) [clinafloxacin] | 95 | 102 | 97.5 | 102 | 102 | 98.7 | 100 | 89.7 | 106 | 108 | 115 | 97 | 108 | 97.3 | 109 | 102 | 97 | 95 | 98.7 | 104 | 95.5 | 94.4 | 94.7 | 97.6 | 99.5 | > 10 | > 10 | > 10 | > 10 | > 10 | 0 | 0 | 0 | 0 | 0
CC(C)(C)NCC(O)c1cc(Br)no1 (stereo not given) [broxaterol] | 104 | 99.1 | 97.6 | 102 | 99.4 | 103 | 99.2 | 93 | 96.2 | 104 | 105 | 96.9 | 92.5 | 94.8 | 97.2 | 105 | 101 | 103 | 98.8 | 99.4 | 111 | 95.4 | 108 | 111 | 95.9 | > 10 | > 10 | > 10 | > 10 | > 10 | 0 | 0 | 0 | 0 | 0
CNCc1cc(-c2ccccc2F)n(S(=O)(=O)c2cccnc2)c1 [vonoprazan] | 95.4 | 100 | 98.1 | 102 | 94.4 | 97.5 | 100 | 102 | 100 | 96.4 | 101 | 93.6 | 100 | 94.3 | 107 | 103 | 99.4 | 97.9 | 99.7 | 98.9 | 99.8 | 96.7 | 94.9 | 96.6 | 105 | > 10 | > 10 | > 10 | > 10 | > 10 | 0 | 0 | 0 | 0 | 0
CC(C)NCC(O)COc1cccc2[nH]c3ccccc3c12 (stereo not given) [carazolol] | 103 | 96.3 | 102 | 97.8 | 99.7 | 97.4 | 89.7 | 104 | 98.1 | 105 | 85.6 | 99 | 98.6 | 101 | 104 | 98 | 99.1 | 90.1 | 100 | 99.3 | 102 | 101 | 90.9 | 95.7 | 106 | > 10 | > 10 | > 10 | > 10 | > 10 | 0 | 0 | 0 | 0 | 0
CCCCCCCCCCCCCCCCCC(=O)OC[C@@H](O)[C@H]1OC[C@H](O)[C@H]1O [sorbitan-monostearate] | 102 | 102 | 101 | 107 | 99.9 | 92.1 | 104 | 87.4 | 100 | 98.7 | 93.7 | 89.2 | 98.7 | 102 | 108 | 99.5 | 102 | 97.2 | 100 | 101 | 101 | 92.9 | 94.1 | 108 | 101 | > 10 | > 10 | > 10 | > 10 | > 10 | 0 | 0 | 0 | 0 | 0
COCCCOc1ccnc(C[S+]([O-])c2nc3ccccc3[nH]2)c1C (stereo not given) [rabeprazole] | 102 | 97.4 | 100 | 99.9 | 100 | 99.4 | 102 | 97.3 | 94.8 | 95.6 | 97.6 | 106 | 91.9 | 94.6 | 95.8 | 98 | 108 | 94.3 | 105 | 100 | 98 | 92.7 | 98.6 | 103 | 100 | > 10 | > 10 | > 10 | > 10 | > 10 | 0 | 0 | 0 | 0 | 0
